Source: patent US20100267742A1, “COMBINATION TARGETED THERAPY FOR LUNG CANCER” (RUSH UNIVERSITY MEDICAL CENTER, priority 2009, published 2010)
“Also recorded” adds a separate entry of the source.

Columns and labels:
Format in all cases: cell-based, human
[1] = tested on: kinase and receptor phosphorylation in Calu3 cells; experiment: Western blot with anti-phospho antibodies on lysates of serum-starved cells; conditions: for Akt (ser473) phosphorylation / EGFR (Y1068) phosphorylation: low doses alone versus combination
Description: (§1) Lysates were prepared for immunoprecipitation and Western blotting from serum-starved Calu3 and H1975 cell lines after incubation with kinase inhibitors, including enzastaurin for PKCβ, and SU11274 for c-met. Specific site directed anti-phospho-antibodies were used to probe Western blots to determine the effect of respective inhibitors on downstream kinase activation. Proliferation and cell viability assays were performed with 10,000 cells seeded into 96-well plates and incubated with inhibitors in serum-starved cultures for 72 hours. Cell viability was determined by the addition of Calcein-AM (calcein-acetoxymethyl ester, diacetate) for the final 2 hours and plates were read at 515 nm. Antibodies: Anti-EGFR, antiphospho-EGFR (Tyr845), anti-phospho-EGFR (Tyr1068), anti-phospho-Akt (Ser473), anti phospho-Erk1,2 (Thr202/Tyr204), anti-phospho-PKCα,β) were purchased from Cell Signaling. Cell cultures: Cells were serum starved for 18-24 hours prior to incubation with kinase inhibitors. Enzastaurin was added for a minimum of 3.5 hours of culture and SU11274 for at least one hour before preparation of lysates. Cell lysates: Media were removed from confluent monolayers of cells immediately before addition of lysis buffer (1 μg/ml aprotinin, 1 μg/ml leupeptin, 200 μM sodium vanadate (NaVO4), 0.1% NP-40, […], 20 mM EDTA, 1 mM PMSF in 50 mM Tris-HCl (pH 7.5). Cells were harvested and sonicated in lysis buffer. After 15 minutes on ice, lysates were microcentrifuged for 20 minutes. Supernatants were removed and protein concentrations therein determined spectrophotometrically with protein detection reagent. Western blots: 10-30 μg of lysate were mixed with loading buffer and boiled before loading into 7.5% Tris-HCl pre-cast SDS-PAGE gels for electrophoresis in SDS-glycine buffer for 90 minutes. Separated proteins were transferred from the gel to Hybond ECL nitrocellulose membrane using a Trans-Blot SD semi-dry transfer cell apparatus. The transfer ran at 20 volts for 35-40 minutes. Nitrocellulose membranes were washed in 1×Tris Buffered Saline-0.1% Tween 20 (TBS-T) then blocked with 5% BSA or 5% milk in TBS-T on rotator for one hour at room temperature or overnight at 4° C. 0.2% Sodium Azide (NaN3) was added to all blocking and primary antibody solutions. Nitrocellulose membranes were probed with 1:1000 or 1:2000 primary antibody.

[2] = tested on: H1975 cells; experiment: Cell proliferation / cell survival (viability) assay, Calcein-AM, 72 hours; conditions: H1975 cell line, two EGFR mutations, alone or in combination
Description: (§2) Lysates were prepared for immunoprecipitation and Western blotting from serum-starved Calu3 and H1975 cell lines after incubation with kinase inhibitors, including enzastaurin for PKCβ, and SU11274 for c-met. Specific site directed anti-phospho-antibodies were used to probe Western blots to determine the effect of respective inhibitors on downstream kinase activation. Proliferation and cell viability assays were performed with 10,000 cells seeded into 96-well plates and incubated with inhibitors in serum-starved cultures for 72 hours. Cell viability was determined by the addition of Calcein-AM (calcein-acetoxymethyl ester, diacetate) for the final 2 hours and plates were read at 515 nm. Lung carcinoma cell lines: H1975 and Calu-3 were cultured following ATCC guidelines. Cells are removed from flasks with cell dissociation buffer in PBS.

[3] = tested on: Calu3 cells; experiment: as above; conditions: for cell survival / cell viability / sensitivity: Calu3, 72 hours in culture, serum-starved; for effect on cell number (3-factor ANOVA): Calu3 cell line, no EGFR mutation, alone or in combination
Description: as §2

[4] = tested on: kinase phosphorylation in H1975 cells; experiment: Western blot with anti-phospho antibodies on lysates of serum-starved cells
Description: as §1

Cc1[nH]c(/C=C2\C(=O)Nc3ccc(S(=O)(=O)N(C)c4cccc(Cl)c4)cc32)c(C)c1C(=O)N1CCN(C)CC1 [SU11274]
Akt (ser473) phosphorylation ([1]; Calu3): only minimal effects
EGFR (Y1068) phosphorylation ([1]; Calu3): only minimal effects
effect on cell number (3-factor ANOVA) ([2]; listed as SU): neither SU nor Enzo150 alone has a significant effect; also recorded: not significantly effective
cell survival / cell viability / sensitivity [3]: significantly decreases the numbers of NSCLC cells
effect on cell number (3-factor ANOVA) ([3]; listed as SU): significant effect

Cn1cc(C2=C(c3cn(C4CCN(Cc5ccccn5)CC4)c4ccccc34)C(=O)NC2=O)c2ccccc21 [enzastaurin]
c-met phosphorylation ([1]; Calu3): decreased
erbB3 phosphorylation ([1]; Calu3): decreased
phosphorylation of PKC family members (pan-antibody against common phosphorylation sites) ([1]; Calu3): does not inhibit phosphorylation of all PKC family members
sic phosphorylation ([1]; Calu3): substantially decreased
PKCαβ phosphorylation ([1]; Calu3, 3.5 hours in culture, serum-free medium): dose dependent inhibition; also recorded: inhibited
Akt (ser473) phosphorylation ([1]; Calu3): only minimal effects
EGFR (Y1068) phosphorylation ([1]; Calu3): only minimal effects
sic phosphorylation ([4]; H1975): only a moderate effect
PKCαβ phosphorylation ([4]; H1975, short-term incubation, serum-free medium): inhibited
effect on cell number (3-factor ANOVA) ([2]; listed as Enza150): not significantly effective
effect on cell number (3-factor ANOVA) ([2]; listed as Enzo150): neither SU nor Enzo150 alone has a significant effect
cell survival / cell viability / sensitivity [3]: greatest sensitivity; also recorded: significantly decreases the numbers of NSCLC cells
effect on cell number (3-factor ANOVA) ([3]; listed as Enzo 150): significant effect
